Where two headings read alike, the source gives them in different places.
Key:
[1] = target: T1, MtDTBS (Mycobacterium tuberculosis dethiobiotin synthetase) (Mycobacterium tuberculosis, UniProt P9WPQ5); test: biochemical
T1 sequence (P9WPQ5 1-226): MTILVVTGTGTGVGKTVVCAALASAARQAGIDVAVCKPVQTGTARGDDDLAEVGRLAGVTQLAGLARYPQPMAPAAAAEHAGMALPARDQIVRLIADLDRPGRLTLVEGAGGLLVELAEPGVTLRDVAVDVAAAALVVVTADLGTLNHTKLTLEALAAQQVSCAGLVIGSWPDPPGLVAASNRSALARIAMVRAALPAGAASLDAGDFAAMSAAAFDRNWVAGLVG

[2] = target: MtDTBS (Mycobacterium tuberculosis dethiobiotin synthetase) (Mycobacterium tuberculosis, UniProt P9WPQ5)

Q: Which Kd [1] does the source give for `O=C1Oc2ccccc2C2(O)C3CCCC3C12` (stereo not shown) [compound 1, 9b-hydroxy-6b,7,8,9,9a,9b-hexahydrocyclopenta[3,4]cyclobuta[1,2-c]chromen-6(6aH)-one] here?
A: Its Kd is 580 ± 40 µM.

Q: Which Kd [2] does the source give for `O=C1CC[N+](=Cc2cccc(C(F)(F)F)c2)[N-]1` [B7] here?
A: The Kd was 680 ± 30 µM.

Q: For `c1ccc2c(c1)CCC1(C2)NCCc2[nH]cnc21` (stereo not shown) [B1], which Kd [2] is on record?
A: Its Kd is 1240 ± 180 µM.

Q: With `O=C1CC(c2ccc(F)cc2)Cc2[nH]ncc21` (stereo not shown) [B3] as the compound, how does the Kd [2] read?
A: The Kd was 620 ± 140 µM.

Reference: paper doi:10.1101/2023.03.26.531482v1 (biorxiv, 2023)
